# Experimental data reported in patent US11415493B2, “Detection of cells in a liquid sample” (DELTA INSTRUMENTS B.V., priority 2016, dated 2022).
# “Also recorded” adds a separate entry of the source.
# Experiments:
# E. coli [1] = experiment: Staining E. coli culture with different nucleic acid dyes, flow cytometer counts (FL1FL2 region); type: cell-based, Escherichia coli
# Description: First, an experiment was performed to confirm that bacterial counts obtained on the flow cytometer using GelGreen™ did correlate with traditional plate counts. For this, the Petrifilm method was selected (Standard Methods for Examination of Dairy Products 17th Edition 2004. Edited by H. M. Wehr and J. R. Frank. American Public Health Association, 800 I Street, NW, Washington D.C. 200001. Chapter 6.040), rather than a poured agar plate method, because of ease of use. Escherichia coil (E. coli) cultures were grown at 36° C. in Trypticase Soy Broth (TSB) in a culture tube. A staining composition was prepared as follows: The nucleic acid dye GelGreen™ (from Biotium) was diluted to 1× from the 10,000× commercially available stock, into Tris-buffered saline (100 mM Trizma base, 100 mM Trizma HCl, 150 mM NaCl, pH 8.5), which was preheated to 50° C. The used dilution of 1:10,000 of the GelGreen™ is in accordance with the manufacturer's recommendation for using GelGreen™ for the purpose it was intended for, namely staining DNA in an agarose gel. This is the dilution of GelGreen™ used in all the examples herein. The E. coli culture was removed from the 36° C. incubator and a small volume was diluted 1:100 into the preheated staining composition and incubated for approximately 4.5 min at 50° C. The stained E. coli was analyzed on the flow cytometer and the FL1 (Bandpass 531 nm (519-551)) and FL2 (Long pass >550 nm) fluorescence channels were used to identify the stained bacteria (FIGS. 1A and 1C). A rectangular region was defined around the positively stained cells identified as live cells in the FL1 versus FL2 2-dimensional correlation plot (FIG. 1B). A count per mL of the E. coli was obtained from the flow cytometry analysis. The E. coli culture was then diluted in TSB to obtain 3 different concentrations (1:10, 1:100 and 1:1000, respectively). The E. coli cultures were kept at 4° C. to minimize further growth until analysis. Each dilution of E. coli was stained with the GelGreen™ reagent, analyzed on the flow cytometer and counts for each dilution were obtained. Each E. coli culture was also appropriately diluted in Butterfield's PBS and 1 mL of the appropriately diluted culture was plated on Petrifilms in duplicate. The Petrifilms were placed in a 30° C. incubator, removed after 48 hrs and the colonies on each Petrifilm were counted using an automated colony counter. An average CFU/mL for each E. coli dilution was obtained. The Log of the flow cytometer bacterial counts using GelGreen™ was plotted versus the Log CFU counts from the Petrifilm (FIG. 2).
# To show where the bacteria in the FL1 and FL2 signal plots can be expected, bacteria were first counted in the staining composition without adding any milk. A culture of E. coli were grown at 36° C. in Trypticase Soy Broth (TSB) in a culture tube. The nucleic acid dye GelGreen™ was diluted into Tris-buffered saline, at approximately pH 8.5, which was preheated to 50° C. The E. coli culture was removed from the 36° C. incubator and a small volume was diluted 1:100 into the preheated staining composition and incubated for approximately 4.5 min at 50° C. The stained E. coli was analyzed on the flow cytometer and the FL1 and FL2 fluorescence channels were used to identify the stained bacteria (FIG. 3A).
# A culture of E. coli was grown at 36° C. in Trypticase Soy Broth (TSB), stained with GelGreen™ and counted on the flow cytometer (FIG. 5) as described in example 2. The E. coli culture was then kept at 4° C. until stained with other nucleic acid dyes. The nucleic acid dyes TOTO®-1 and SYBR® Safe (both from Thermo Fisher Scientific) were selected as alternatives. […] Both dyes have similar spectral properties to GelGreen™ and were diluted in Tris-buffered saline using the same dilution factor as GelGreen™. […]
# bacteria in raw milk = experiment: IBC in raw milk samples at different temperature settings, flow cytometer; type: cell-based
# Description: The nucleic acid dyes, Evagreen®, SYTOX® Green and Propidium iodide where tested against GelGreen™ (the reference method). […] Nucleic acid dyes Evagreen®, SYTOX® Green and propidium iodide were tested using the same staining and incubation conditions as for the reference method only differing in the type of dye comprised in the staining composition. Evagreen® was used at a concentration of 1.25 μM in the staining composition. SYTOX® Green and Propidium iodide were used at a concentration of 5 μM in the staining composition. Three different types of milk were used: Locally obtained raw bulk tank milk from a farm and dairy plant where collected at a local farmer. This milk is referred to as fresh raw milk and is not older than 24 hours. 24 hour and 48 hour old milk were obtained from a dairy plant. […] For this purpose E. coli was grown overnight (approx. 15 h) in TSB at 32° C. The dead bacterial where obtained by heating the grown E. coli at 110° C. for 10 minutes. […] All the milk samples are kept at 4° C. until analyzed. […] Finally, the samples were analyzed on the flow cytometer and the fluorescent signals from the bacteria were detected and a count per unit volume was determined. […]
# From example 5 it is already clear that temperatures lower than the optimal settings result in decreased DNA staining and so bacteria counting performance. […] Milk samples were kept at 4° C. until analyzed. […]
# E. coli [2] = experiment: Staining E. coli in spiked raw milk and saline at different temperatures, flow cytometry; type: cell-based, Escherichia coli; conditions: around 60° C. versus lower temperatures (40, 35, 25, 23° C.), 1 minute, pH 10.6
# Description: Both solutions were spiked with E. coli bacteria by adding 200 μl bacterial culture to 45 ml solution. The staining composition was prepared with the same dilution of GelGreen™ (from Biotium) as described in Example 1, but this time into a Tris-saline solution (200 mM Trizma base, 150 mM NaCl, pH 10.6) further comprising 0.12 AU/ml liquid Alcalase® 2.4 L FG (from Novozymes). Incubations were as described in the previous examples, except that spiked raw milk samples were incubated at 60, 40 and 23° C. and spiked saline samples were incubated at 60, 35 and 25° C. for 1 minute. […] Each panel contains four quarters: Q1, Q2, Q3 and Q4. The counts provided in Q4 represent the number of cells given in each of these four quarters. […] The optimal range as disclosed herein is 40 to 70° C., a further preferred range is 60 to 68° C. and a highly preferred temperature point is 62° C.
smiles,measurement,setting,value
CN(C)c1ccc2cc3ccc(N(C)C)cc3[n+](CCCCCC(=O)NCCCOCCOCCOCCCNC(=O)CCCCC[n+]3c4cc(N(C)C)ccc4cc4ccc(N(C)C)cc43)c2c1.[I-].[I-] [GelGreen™],staining of E. coli,"E. coli [1]; NaCl solution (saline), 50° C.",minimal staining
same,staining of E. coli,"E. coli [1]; NaCl solution (saline), room temperature (23° C.)",does not stain E. coli; also recorded: did not stain bacterial cells
same,staining of E. coli,"E. coli [1]; Tris-buffered saline pH 8.5, 50° C., approximately 4.5 min",stains essentially all bacterial cells
same,staining of E. coli,"E. coli [1]; Tris-buffered saline pH 8.5, room temperature (23° C.)",does not stain E. coli; also recorded: did not stain bacterial cells
same,IBC compared to the 68° C. based reference method,"bacteria in raw milk; 40° C., fresh spiked milk",way too low
same,IBC compared to the 68° C. based reference method,"bacteria in raw milk; 90° C., all the samples",slightly higher
same,bacterial cells counted,E. coli [2],more bacterial cells could be counted
